Measured values: patent publication US20250304620A1, “ANTIMICROBIAL PEPTIDE AND APPLICATION THEREOF” (priority 2023, published 2025)
Values after ≈ are worked out from the molar mass of the structure shown. Marks after values point to notes of the source that are not given here. Non-standard residues stand in square brackets, D forms with d. Residues, ends and D or L forms follow the SMILES beside them. dPhe(4-Br) = N[C@H](Cc1ccc(Br)cc1)C(=O)O; d2Nal = N[C@H](Cc1ccc2ccccc2c1)C(=O)O

How the values were obtained:
[1] = tested on: Bacillus subtilis ATCC 6633; assay type: cell-based
Procedure, shortened: (§1)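 Minimum inhibitory concentration served as the read-out, obtained with a twofold serial dilution microdilution method run per CLSI guidelines and performed in five parallel replicates.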

[2] = tested on: Candida albicans ATCC MYA-2876; assay type: cell-based
Procedure, shortened: as §1

[3] = tested on: Candida tropicalis ATCC 750; assay type: cell-based
Procedure, shortened: as §1

[4] = tested on: Candida utilis ATCC 9950; assay type: cell-based
Procedure, shortened: as §1

[5] = tested on: Enterococcus ATCC 29212; assay type: cell-based
Procedure, shortened: as §1

[6] = tested on: Escherichia coli ATCC 25922; assay type: cell-based
Procedure, shortened: as §1

[7] = tested on: Klebsiella pneumoniae ATCC 700603; assay type: cell-based
Procedure, shortened: as §1

[8] = tested on: Pseudomonas aeruginosa ATCC 27853; assay type: cell-based
Procedure, shortened: as §1

[9] = tested on: Salmonella typhimurium ATCC 14028; assay type: cell-based
Procedure, shortened: as §1

[10] = tested on: Serratia marcescens ATCC 29021; assay type: cell-based
Procedure, shortened: as §1

[11] = tested on: Staphylococcus aureus ATCC 25923; assay type: cell-based
Procedure, shortened: as §1

[12] = tested on: Pseudomonas aeruginosa ATCC 27853; test: Injectable formulations on mice infected with peritonitis; assay type: in vivo, ICR mice; details: twice a day for 3 days; for Number of mice that died on each day after infection: day 1 / Number of mice that died on each day after infection: day 2 / Number of mice that died on each day after infection: day 3 / Number of mice that died on each day after infection: day 4 / Number of mice that died on each day after infection: day 5 / Average survival times (Days): n = 10; for Average survival times (Days): observed for 14 d; for survival time of mice infected with Pseudomonas aeruginosa: tail vein, observed 14 d
Procedure: Both female and male ICR mice were used in the test, half of the female and male mice were taken and randomly assigned into groups, with 10 mice in each group, and kept in separate cages. The mice were divided into a blank control group, a negative control group, a positive control Levofloxacin group, and AMPs LV-1 to LV-30 groups. A bacterial suspension of Pseudomonas aeruginosa ATCC 27853 was prepared, a concentration of the suspension was adjusted 1×10^9 CFU/mL for subsequent use. Except for the blank control group, all other mice were injected with the bacterial suspension (0.2 mL, 1×10^9 CFU/mL), into abdominal cavity of the mice, to establish a model. After the model was successfully established, the mice were given drug immediately according to their body weights. Except for the blank control group and the negative control group, the mice in all other groups were administered the corresponding injectable formulations via tail vein, twice a day for 3 consecutive days. The mice were then observed for 14 d. The death of mice in each group was observed, and survival time of the mice was recorded. Results of the effect of the injectable formulations of AMPs LV-1 to LV-30 on the survival time of mice infected with Pseudomonas aeruginosa are shown in Table 10.

Compound | MIC Bacillus subtilis ATCC 6633 [1] [µg/mL] | MIC Candida albicans ATCC MYA-2876 [2] [µg/mL] | MIC Candida tropicalis ATCC 750 [3] [µg/mL] | MIC Candida utilis ATCC 9950 [4] [µg/mL] | MIC Enterococcus ATCC 29212 [5] [µg/mL] | MIC Escherichia coli ATCC 25922 [6] [µg/mL] | MIC Klebsiella pneumoniae ATCC 700603 [7] [µg/mL] | MIC Pseudomonas aeruginosa ATCC 27853 [8] [µg/mL] | MIC Salmonella typhimurium ATCC 14028 [9] [µg/mL] | MIC Serratia marcescens ATCC 29021 [10] [µg/mL] | MIC Staphylococcus aureus ATCC 25923 [11] [µg/mL] | Number of mice that died on each day after infection: day 1 ([12]; 0.2 mg/kg via tail vein) [Mouse] | Number of mice that died on each day after infection: day 2 ([12]; 0.2 mg/kg via tail vein) [Mouse] | Number of mice that died on each day after infection: day 3 ([12]; 0.2 mg/kg via tail vein) [Mouse] | Number of mice that died on each day after infection: day 1 ([12]; 1 mg/kg via tail vein) [Mouse] | Number of mice that died on each day after infection: day 2 ([12]; 1 mg/kg via tail vein) [Mouse] | Number of mice that died on each day after infection: day 3 ([12]; 1 mg/kg via tail vein) [Mouse] | Number of mice that died on each day after infection: day 4 ([12]; 1 mg/kg via tail vein) [Mouse] | Number of mice that died on each day after infection: day 5 ([12]; 1 mg/kg via tail vein) [Mouse] | Average survival times (Days) ([12]; 1 mg/kg via tail vein) | further results
CC(=O)N[C@H](CCCNC(=N)N)C(=O)N[C@H](CCCCN)C(=O)N[C@H](CC(C)C)C(=O)N[C@H](CC(C)C)C(=O)N[C@H](Cc1ccc2ccccc2c1)C(=O)N[C@H](CCCNC(=N)N)C(=O)N[C@H](CC(C)C)C(=O)N[C@H](CCCCN)C(=O)N[C@H](Cc1ccc2ccccc2c1)C(=O)N[C@H](CCCNC(=N)N)C(=O)N[C@H](CCCCN)C(N)=O [LV-20] (Ac-[dR][dK][dL][dL][d2Nal][dR][dL][dK][d2Nal][dR][dK]-NH2) | 2 (≈ 1.21 µM) | 4 (≈ 2.43 µM) | 8 (≈ 4.86 µM) | 8 (≈ 4.86 µM) | 4 (≈ 2.43 µM) | 1 (≈ 0.607 µM) | 2 (≈ 1.21 µM) | 1 (≈ 0.607 µM) | 1 (≈ 0.607 µM) | 2 (≈ 1.21 µM) | 1 (≈ 0.607 µM) | 2 | 1 | 2 | 1 | 1 | 1 | 0 | 0 | 10.4**** Days | Number of mice that died on each day after infection: day 4 ([12]; 0.2 mg/kg via tail vein): 1 Mouse; Number of mice that died on each day after infection: day 5 ([12]; 0.2 mg/kg via tail vein): 0 Mouse; Average survival times (Days) ([12]; 0.2 mg/kg via tail vein): 7.0** Days; Number of mice that died on each day after infection: day 1 ([12]; 5 mg/kg via tail vein): 1 Mouse; Number of mice that died on each day after infection: day 2 ([12]; 5 mg/kg via tail vein): 2 Mouse; Number of mice that died on each day after infection: day 3 ([12]; 5 mg/kg via tail vein): 0 Mouse; Number of mice that died on each day after infection: day 4 ([12]; 5 mg/kg via tail vein): 0 Mouse; Number of mice that died on each day after infection: day 5 ([12]; 5 mg/kg via tail vein): 0 Mouse; Average survival times (Days) ([12]; 5 mg/kg via tail vein): 10.3**** Days; survival time of mice infected with Pseudomonas aeruginosa [12]: superior to those of the Levofloxacin group
CC(=O)N[C@H](CCCCN)C(=O)N[C@H](CCCCN)C(=O)N[C@H](CC(C)C)C(=O)N[C@H](CC(C)C)C(=O)N[C@H](Cc1ccc(Br)cc1)C(=O)N[C@H](CCCNC(=N)N)C(=O)N[C@H](CC(C)C)C(=O)N[C@H](CCCCN)C(=O)N[C@H](Cc1ccc(Br)cc1)C(=O)N[C@H](CCCNC(=N)N)C(=O)N[C@H](CCCCN)C(N)=O [LV-10] (Ac-[dK][dK][dL][dL][dPhe(4-Br)][dR][dL][dK][dPhe(4-Br)][dR][dK]-NH2) | 2 (≈ 1.19 µM) | 8 (≈ 4.77 µM) | 4 (≈ 2.39 µM) | 8 (≈ 4.77 µM) | 2 (≈ 1.19 µM) | 1 (≈ 0.597 µM) | 2 (≈ 1.19 µM) | 2 (≈ 1.19 µM) | 2 (≈ 1.19 µM) | 4 (≈ 2.39 µM) | 2 (≈ 1.19 µM) |  |  |  | 0 | 1 | 1 | 2 | 0 | 9.7*** Days | 
CC(=O)N[C@H](CCCNC(=N)N)C(=O)N[C@H](CCCCN)C(=O)N[C@H](CC(C)C)C(=O)N[C@H](CC(C)C)C(=O)N[C@H](Cc1ccc2ccccc2c1)C(=O)N[C@H](CCCNC(=N)N)C(=O)N[C@H](CC(C)C)C(=O)N[C@H](CCCCN)C(=O)N[C@H](Cc1ccc2ccccc2c1)C(=O)N[C@H](CCCNC(=N)N)C(=O)N[C@H](CCCNC(=N)N)C(N)=O [LV-22] (Ac-[dR][dK][dL][dL][d2Nal][dR][dL][dK][d2Nal][dR][dR]-NH2) | 4 (≈ 2.39 µM) | 8 (≈ 4.78 µM) | 8 (≈ 4.78 µM) | 16 (≈ 9.56 µM) | 2 (≈ 1.19 µM) | 2 (≈ 1.19 µM) | 2 (≈ 1.19 µM) | 2 (≈ 1.19 µM) | 4 (≈ 2.39 µM) | 4 (≈ 2.39 µM) | 1 (≈ 0.597 µM) |  |  |  | 1 | 1 | 0 | 1 | 1 | 9.6*** Days | 
CC(=O)N[C@H](CCCNC(=N)N)C(=O)N[C@H](CCCCN)C(=O)N[C@H](CC(C)C)C(=O)N[C@H](CC(C)C)C(=O)N[C@H](Cc1ccccc1)C(=O)N[C@H](CCCNC(=N)N)C(=O)N[C@H](CC(C)C)C(=O)N[C@H](CCCCN)C(=O)N[C@H](Cc1ccccc1)C(=O)N[C@H](CCCNC(=N)N)C(=O)N[C@H](CCCCN)C(N)=O [LV-2] (Ac-[dR][dK][dL][dL][dF][dR][dL][dK][dF][dR][dK]-NH2) | 2 (≈ 1.29 µM) | 16 (≈ 10.3 µM) | 16 (≈ 10.3 µM) | 8 (≈ 5.17 µM) | 4 (≈ 2.59 µM) | 1 (≈ 0.647 µM) | 4 (≈ 2.59 µM) | 1 (≈ 0.647 µM) | 2 (≈ 1.29 µM) | 4 (≈ 2.59 µM) | 2 (≈ 1.29 µM) | 3 | 1 | 1 | 0 | 0 | 1 | 0 | 1 | 12.0**** Days | Number of mice that died on each day after infection: day 4 ([12]; 0.2 mg/kg via tail vein): 0 Mouse; Number of mice that died on each day after infection: day 5 ([12]; 0.2 mg/kg via tail vein): 0 Mouse; Average survival times (Days) ([12]; 0.2 mg/kg via tail vein): 7.8** Days; Number of mice that died on each day after infection: day 1 ([12]; 5 mg/kg via tail vein): 1 Mouse; Number of mice that died on each day after infection: day 2 ([12]; 5 mg/kg via tail vein): 0 Mouse; Number of mice that died on each day after infection: day 3 ([12]; 5 mg/kg via tail vein): 1 Mouse; Number of mice that died on each day after infection: day 4 ([12]; 5 mg/kg via tail vein): 0 Mouse; Number of mice that died on each day after infection: day 5 ([12]; 5 mg/kg via tail vein): 0 Mouse; Average survival times (Days) ([12]; 5 mg/kg via tail vein): 11.6**** Days; survival time of mice infected with Pseudomonas aeruginosa [12]: superior to those of the Levofloxacin group
